{"source": "patent US6632789B1", "about": "“Methods for modulating T cell responses by manipulating intracellular signal transduction” (The United States of America as represented by the …, priority 1994, dated 2003)", "key": {"[1]": {"test_system": "CD28-induced IL-2 production", "details": "cited from earlier work"}, "[2]": {"test_system": "CD28-mediated calcium flux in Jurkat cells", "assay": "Anti-CD28 antibody-induced calcium flux in Jurkat cells", "type": "cell-based", "details": "Jurkat cells stimulated with anti-CD28 antibody; FIG. 4", "method": "In this example, the effect of pharmacological inhibitors on calcium flux in Jurkat cells induced by anti-CD28 antibodies was examined. The pharmacological inhibitors studied were wortmannin, which inhibits the activity of PI3K, and herbimycin A, which inhibits the activity of protein tyrosine kinases. Jurkat cells were stimulated with an anti-CD28 antibody, either in medium alone or in the presence of wortmannin or herbimycin A, and the mean calcium concentration (nM) in the cells was measured over several minutes following stimulation."}, "human T cells": {"test_system": "human T cells", "assay": "IL-2 production by human T cells after 24 hours (ELISA of supernatants)", "type": "cell-based", "details": "for IC50: T-cell", "method": "In this example, the effect of an inhibitor of phosphatidylinositol 3-kinase on CD28-dependent production of interleukin-2 by T cells was examined. In a first series of experiments, the effect of T cell stimulation through CD28, in conjunction with stimulation through CD3, on IL-2 production was assessed in the absence of wortmannin. Highly purified human peripheral blood T cells were incubated for 24 hours with an immobilized anti-CD3 antibody (OKT3) alone or together with either an anti-CD28 antibody (9.3) or mitomycin C-treated CHO cells, either untransfected or transfected to express B7-1 or B7-2. Increasing numbers of CHO cells were tested (0.5×10^6 to 4×10^6). After culture for 24 hours, the culture supernatants were assayed for IL-2 production by ELISA by standard techniques.\nIn a next series of experiments, resting human T cells were stimulated with either: 1) immobilized OKT3+CHO-B7-1, 2) immobilized OKT3+CHO-B7-2, 3) immobilized OKT3+CHO-B7-1+B7-2, 4) PMA+CHO-B7-1 or 5) PMA+B7-2. Stimulation of T cells was performed in media alone or in media containing wortmannin at concentrations between 1 nM and 1 μM. Twenty-four hours following culture, the supernatants were assayed for IL-2 production by ELISA. […] Wortmannin-mediated inhibition of IL-2 production was dose dependent. The ID50 for inhibition of B7-2 -mediated stimulation was approximately 10 nM. The ID50 for inhibition of B7-1-mediated stimulation was between 10 and 100 nM."}}, "note": "Read-outs that look alike come from different tables or passages of the source.", "data": [{"compound": "CO[C@H]1[C@@H](OC)C[C@H](C)[C@@H](OC)C2=CC(=O)C=C(NC(=O)/C(C)=C/C=C\\[C@H](OC)[C@@H](OC(N)=O)/C(C)=C/[C@@H]1C)C2=O", "note": "[herbimycin A]", "values": [{"measurement": "inhibition of CD28-induced IL-2 production", "setting": "[1]", "value": "can inhibit"}, {"measurement": "inhibition of CD28 antibody-induced calcium flux", "setting": "[2]", "value": "capable of inhibiting"}]}, {"compound": "OKT3: immobilized anti-CD3 antibody (OKT3)", "values": [{"measurement": "IL-2 production", "setting": "human T cells; purified human peripheral blood T cells, 24 hours, immobilized OKT3 alone, FIG. 6", "value": "did not produce IL-2"}]}, {"compound": "COC[C@H]1OC(=O)c2coc3c2[C@@]1(C)C1=C(C3=O)[C@@H]2CCC(=O)[C@@]2(C)C[C@H]1OC(C)=O", "note": "[wortmannin]", "values": [{"measurement": "IC50", "setting": "human T cells; resting human T cells, immobilized OKT3+CHO-B7-1, 24 hours, read-out: ID50 for inhibition of B7-1-mediated stimulation of IL-2 production", "value": "10 to 100", "unit": "nM"}, {"measurement": "IC50", "setting": "human T cells; resting human T cells, immobilized OKT3+CHO-B7-2, 24 hours, read-out: ID50 for inhibition of B7-2-mediated stimulation of IL-2 production", "value": "~10", "unit": "nM"}, {"measurement": "toxicity to the cells", "setting": "human T cells; resting human T cells, at the ID50 doses (10 to 100 nM)", "value": "not generally toxic"}, {"measurement": "inhibition of IL-2 production stimulated by PMA together with membrane-bound B7-1 or B7-2", "setting": "human T cells; resting human T cells, wortmannin at concentrations as high as 1 μM", "value": "not inhibited"}]}]}
